Key:
[1] = system: Respiratory syncytial virus recombinant with luciferase (RSV-Luc5) in HEp-2 cells; assay: microbe, parasite or virus in culture; assay type: cell-based; conditions: human respiratory syncytial virus, HEp-2, 72 h, read-out: RSV Hep2 EC50
[2] = system: SARS Coronavirus 2 recombinant with NanoLuc (SARS-CoV2-NLuc) in A549-hACE2 cells; assay: organism not typed; assay type: cell-based; conditions: 48 h; read-out: SARS-CoV2 EC50
[3] = system: Respiratory syncytial virus recombinant with luciferase (RSV-Luc5) in Normal Human Bronchial Epithelial (NHBE) cells; assay: microbe, parasite or virus in culture; assay type: cell-based; conditions: 72 h, read-out: RSV NHBE EC50
[4] = CC50 MT4 cytotoxicity (Cell-Titer Glo); assay type: cell-based; conditions: human
Method in brief: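 CC50 values are the concentrations cutting viability by 50%, fitted by non-linear regression against untreated (100%) and 2 μM puromycin (0%) controls. Cell-Titer Glo luminescence measured after 4-5 days at 37° C exposure of uninfected MT-4 and HEp-2 cells to 3-fold dilutions spanning 15 nM to 100,000 nM.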

GI S9 stability = assay type: in vitro ADME; conditions: human, s9, pH 7.4
Procedure: Example G: GI S9 Stability
Duplicate aliquots of test compound or positive control substrate (GS-7340) were added to S9 stock diluted with 100 mM phosphate buffered saline, pH 7.4, to obtain a protein concentration of 1.0 mg/mL. The S9 metabolic reactions were initiated by the addition of the substrates to the S9 reaction mixture to a final concentration of 2 μM. At 0, 10, 20, 30, 60 and 120 min, […] aliquots of the reaction mixture were transferred to plates containing […] of IS/Q solution. After quenching, the plates were centrifuged at 3000 g for 30 minutes, and 150 μL aliquots of each supernatant were diluted with 150 μL water. Aliquots ([…]) of the diluted supernatant were analyzed on a Thermo Q-Exactive mass spectrometer as described below. GI S9 Stability—No phenylmethylsulfonyl fluoride (PMSF): Similar to the procedure described above, test compounds were incubated at 2 μM with 1 mg/mL PMSF-free Intestinal S9 fractions. Samples are removed at 6 time points over the course of a 120 min experiment and the parent compound disappreance and reference compound A formation is determined by mass spectrometry.
Example K: Liquid Chromatography/Mass Spectroscopy Methods for S9 and Plasma Stability
Quantification of test compounds, Reference Compound A (S9 stability assay nucleoside metabolite), and controls was performed by analyte/internal standard peak area ratio (PAR) values measured on a Thermo Q-Exactive mass spectrometer coupled to a Dionex UltiMate 3000 HPLC with a Leap Technologies HTC PAL autosampler. The column used for analysis of test compounds and Reference Compound A was a Waters Acquity BEH C18 ([…] particle size, 2.1′50 mm). The column used for control (GS-7340) was a Thermo Hypersil GOLD ([…] particle size, 2.1′50 mm). Mobile phase A consisted of 0.1% (v/v) formic acid in water. Mobile phase B consisted of 0.1% (v/v) formic acid in acetonitrile. Elution of analytes was achieved by a series of linear gradients of acetonitrile in water containing 0.1°(v/v) formic acid. The mass spectrometer was calibrated on a weekly basis and mass tolerance of 5 ppm was used.

Plasma stability = assay type: in vitro ADME; design: unit not given here; conditions: 37° C., 2 μM substrate
Method in brief: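 LC-MS (Q-Exactive, 5 ppm tolerance, 0.1% formic acid water/acetonitrile gradient) quantified compound in quenched aliquots. Aliquots were taken at 0.05, 0.5, 1, 2, 3 and 4 hr and quenched with internal-standard solution, and supernatants were diluted with water after centrifugation.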

[5] = GI S9 stability - no PMSF; assay type: in vitro ADME; conditions: pH 7.4; human intestinal S9, PMSF-free; read-out: GIS9-HUMAN-NoPMSF T1/2
Method in brief: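 Stability was assessed by Q-Exactive LC-MS peak area ratios against internal standard, tracking loss of parent and appearance of nucleoside metabolite Reference Compound A. Incubations used 2 μM compound in 1 mg/mL intestinal S9 without PMSF (PBS, pH 7.4), with six samples taken over 120 min.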

[6] = system: Caco-2 cells (clone C2BBe1); assay: CACO-2 permeability; assay type: in vitro ADME; design: unit not given here; conditions: for DM Caco2 A to B: apical to basolateral, donor pH 6.5, receiver pH 7.4; for DM Caco2 B to A: basolateral to apical
Method in brief: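 A-to-B and B-to-A flux measured by LC-MS/MS from receiver samples taken at 1 and 2 h, with donor sampled at 0 and 2 h and recovery checked. Buffers: pH 6.5 HBSS with 200 μM BNPP on the donor side, pH 7.4 with BSA on the receiver side. Monolayers were 21-day cultures, TEER-verified, in duplicate wells.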

[7] = Thermodynamic solubility in pH7 buffered solution; conditions: 50 mM phosphate buffer pH7, 150 mM NaCl, ambient temperature, 24 hours
Procedure: Solubility was determined at ambient temperature in a 50 mM phosphate buffered pH7 solution with 150 mM NaCl (to achieve isotonicity). Solids were added to the buffered solution in 1.5-mL Eppendorf tubes, vortexed for 1 minute, then agitated for 24 hours in an Eppendorf ThermoMixer C. […] Supernatants were diluted to a volume of 1 mL with 30:70 v/v acetonitrile:water. All diluted supernatants were analyzed by UPLC using a Waters Acquity UPLC with a PDA UV detector.

[8] = Stability in pH2 buffered solution; assay type: physicochemical; conditions: pH2 phosphate buffer, 40° C., 24 h; Table N2
Method in brief: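 UPLC % area-normalized compound peak tracked over 24 hrs at 40° C. (0, 3, 6, 9, 12 and 24 hrs). Samples at 50 μg/mL, prepared from 1 mg/mL acetonitrile stock, in pH2 or pH7 50 mM phosphate/150 mM NaCl buffer.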

[9] = Stability in pH7 buffered solution; assay type: physicochemical; conditions: pH7 phosphate buffer, 40° C., Table N2
Procedure: Example N: Stability in p112 and p117 Buffered Solutions
The aqueous stability of compounds over a time of 24 hours at 40° C. was assessed. Stability was determined in 50 mM phosphate buffered solutions at both pH2 and pH7, with 150 mM NaCl (to achieve isotonicity). 3-5 mg of solid compounds were added to 7 mL scintillation vials. Acetonitrile was added to each vial to produce a 1 mg/mL stock solution. Stock solutions were diluted to 50 μg/mL in either pH2 or pH7 phosphate buffer, to a volume of 1 mL. For each compound and pH condition, 50 μg/mL samples were prepped in duplicate. One sample was placed on the UPLC tray at 40° C. for analysis, and the second sample was placed in a 40° C. oven for storage. Sample preps for each compound were offset by 40 minutes to account for run time on UPLC.
Concentration timepoints were measured at 0, 3, 6, 9, and 12 hrs. After 24 hrs, samples in the 40° C. oven were removed and analyzed by UPLC.
In FIG. 2, % AN stands for % area normalized. That is, % AN is the area of the compound peak relative to the sum of areas of all the peaks in the UPLC chromatogram. For example, if there were two peaks, compound peak with an area of 9 and another peak with an area of 1, then the % AN of the compound peak would be 90%.

Structure (SMILES) | EC50 [1] | EC50 [2] | EC50 [3] | CC50 [4] | half-life at 2 µM (GI S9 stability) | STA Human Plasma 37 (Plasma stability) | half-life at 2 µM [5] | DM Caco2 A to B [6] | DM Caco2 B to A [6] | Sol pH 7 [7] | pH 2 Stability 24 h % AN [8] | pH 7 Stability 24 h % AN [9]
N#C[C@@]1(c2ccc3c(N)ncnn23)O[C@H](COC(=O)OC2CCOC2)[C@@H](O)[C@H]1O (stereo partly drawn) [Compound 11, ((2R,3S,4R,5R)-5-(4-aminopyrrolo[2,1-f][1,2,4]triazin-7-yl)-5-cyano-3,4-dihydroxytetrahydrofuran-2-yl)methyl (tetrahydrofuran-3-yl) carbonate] | 4.94 µM | 20.6 µM | 2.92 µM | > 50 µM | ≥ 789 min | 135.19 | – | – | – | – | – | –
CC(C)COC(=O)OC[C@H]1O[C@@](C#N)(c2ccc3c(N)ncnn23)[C@H](OC(=O)C(C)C)[C@@H]1OC(=O)C(C)C [Compound 16, (2R,3R,4R,5R)-2-(4-aminopyrrolo[2,1-f][1,2,4]triazin-7-yl)-2-cyano-5-(((isobutoxycarbonyl)oxy)methyl)tetrahydrofuran-3,4-diyl bis(2-methylpropanoate)] | 1.15 µM | 2.57 µM | 0.981 µM | 27.8 µM | 1.01 min | 30.6 | – | – | – | – | – | –
CC(C)(C)COC(=O)OC[C@H]1O[C@@](C#N)(c2ccc3c(=N)n(COP(=O)(O)O)cnn23)[C@H](O)[C@@H]1O [Compound 19, ((2R,3S,4R,5R)-5-cyano-3,4-dihydroxy-5-(4-imino-3-((phosphonooxy)methyl)-3,4-dihydropyrrolo[2,1-f][1,2,4]triazin-7-yl)tetrahydrofuran-2-yl)methyl neopentyl carbonate] | 1.24 µM | 7.7 µM | 5.4 µM | > 50 µM | 27.4 min | 1584 | – | – | – | – | – | –
CC(=O)O[C@H]1[C@@H](OC(C)=O)[C@](C#N)(c2ccc3c(N)ncnn23)O[C@@H]1COC(=O)OC(C)(C)c1ccncc1 [Compound 79, (2R,3R,4R,5R)-2-(4-aminopyrrolo[2,1-f][1,2,4]triazin-7-yl)-2-cyano-5-(((((2-(pyridin-4-yl)propan-2-yl)oxy)carbonyl)oxy)methyl)tetrahydrofuran-3,4-diyl diacetate] | – | > 50 µM | > 50 µM | > 50 µM | – | 17.837 | 40.9 s | 0.61 | 9.26 | 0.26 | 88 % AN | 77 % AN
CC(C)OC(=O)OC[C@H]1O[C@@](C#N)(c2ccc3c(N)ncnn23)[C@H](OC(=O)OC(C)C)[C@@H]1OC(=O)OC(C)C [Compound 81, (2R,3R,4R,5R)-2-(4-aminopyrrolo[2,1-f][1,2,4]triazin-7-yl)-2-cyano-5-(((isopropoxycarbonyl)oxy)methyl)tetrahydrofuran-3,4-diyl diisopropyl bis(carbonate)] | – | 24.4 µM | 0.996 µM | 48.3 µM | – | 195.87 | 41.3 s | 7.77 | 14.74 | 0.06 | 100 % AN | 98 % AN
COC(=O)OC[C@H]1O[C@@](C#N)(c2ccc3c(N)ncnn23)[C@H](OC(=O)OC)[C@@H]1OC(=O)OC [Compound 93, (2R,3R,4R,5R)-2-(4-aminopyrrolo[2,1-f][1,2,4]triazin-7-yl)-2-cyano-5-(((methoxycarbonyl)oxy)methyl)tetrahydrofuran-3,4-diyl dimethyl bis(carbonate)] | – | 10.6 µM | 11.1 µM | 31.7 µM | – | 28.444 | 61 s | 1.2 | 8.3 | 0.62 | 94 % AN | 75 % AN
CCOC(=O)OC[C@H]1O[C@@](C#N)(c2ccc3c(N)ncnn23)[C@H](OC(=O)OCC)[C@@H]1OC(=O)OCC [Compound 106, (2R,3R,4R,5R)-2-(4-aminopyrrolo[2,1-f][1,2,4]triazin-7-yl)-2-cyano-5-(((ethoxycarbonyl)oxy)methyl)tetrahydrofuran-3,4-diyl diethyl bis(carbonate)] | – | 4.56 µM | 1.4 µM | > 50 µM | – | 30.917 | 39.6 s | 4.975 | 9.5 | 0.08 | 100 % AN | 91 % AN
CCC1O[C@H]2[C@@H](O1)[C@](C#N)(c1ccc3c(N)ncnn13)O[C@@H]2COC(=O)OC(C)C (stereo partly drawn) [Compound 133, ((3aR,4R,6R,6aR)-6-(4-aminopyrrolo[2,1-f][1,2,4]triazin-7-yl)-6-cyano-2-ethyltetrahydrofuro[3,4-d][1,3]dioxol-4-yl)methyl isopropyl carbonate] | – | > 50 µM | > 50 µM | > 50 µM | – | 73.357 | 37.4 s | 17.25 | 16.82 | 0.24 | 95 % AN | 98 % AN

Source: patent US12448383B2, “Compounds and methods for treatment of viral infections” (priority 2022, dated 2025)
